Activity calls are given as the source filed them. No rule for the calls is given here.
Target: Collagenase 3 (Homo sapiens) (UniProt P45452)
Assay: human MMP13 inhibitors, potency, dose response, biochemical (AID 735)
Details: recombinant MMP13 enzymatic activity assay

IC50	SMILES
inactive	CCOC(=O)/C(C#N)=C1/C=Nc2ccccc2N1
> 39.8 µM (inactive)	COc1cc(-n2nc(C)c3c2OC(N)=C(C#N)C3c2ccccc2)c(Cl)c(Br)c1O (configuration not stated)
